The results in this text go back to patent publication US6452032B1, “Organosilyl compounds having nuclear hormone receptor modulating activity” (Allergan Sales, LLC, priority 1999, dated 2002).

The target of experiment [1] is T1, RARγ (Homo sapiens, UniProt P13631).
T1 sequence (P13631 1-454): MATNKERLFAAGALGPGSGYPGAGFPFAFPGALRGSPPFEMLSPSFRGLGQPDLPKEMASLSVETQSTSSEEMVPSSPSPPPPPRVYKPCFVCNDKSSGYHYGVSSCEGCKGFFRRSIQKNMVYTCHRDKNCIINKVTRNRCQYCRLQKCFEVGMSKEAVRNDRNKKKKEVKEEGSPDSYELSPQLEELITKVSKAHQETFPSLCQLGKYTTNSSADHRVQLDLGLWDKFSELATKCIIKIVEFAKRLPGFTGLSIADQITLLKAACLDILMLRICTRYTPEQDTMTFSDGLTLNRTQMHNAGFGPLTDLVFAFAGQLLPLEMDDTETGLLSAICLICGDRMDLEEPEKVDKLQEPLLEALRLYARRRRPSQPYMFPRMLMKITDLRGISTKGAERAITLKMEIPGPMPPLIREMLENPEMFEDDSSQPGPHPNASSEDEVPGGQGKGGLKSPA
Nature of the experiment: Competition binding assay, radiolabeled all-trans-retinoic acid, RARγ. The procedure: (§1) Binding assays were performed using a classic competition assay format in which cloned receptor RAR mand RXR molecules were first loaded with either radiolabeled all-trans-retinoic acid (RAR) or radiolabeled 9-cis retinoic acid (RXR), and then the amount of radioactivity liberated with increasing concentration of test compound was measured.
(§2) These compounds are designated AGN 192192, AGN 192337, AGN 192294, AGN 192295, and AGN 192452, respectively. EC50 designates the concentration of the tested compound which was able to give a 50% maximal transcription of the reporter gene; KD50 indicates the concentration of the tested compound at which 50% of the compound molecules are bound to the receptor. NT indicates those points that were not tested in the particular experiment.

For experiment [2], the target named is T2, RARα (Homo sapiens, UniProt P10276).
T2 sequence (P10276 1-462): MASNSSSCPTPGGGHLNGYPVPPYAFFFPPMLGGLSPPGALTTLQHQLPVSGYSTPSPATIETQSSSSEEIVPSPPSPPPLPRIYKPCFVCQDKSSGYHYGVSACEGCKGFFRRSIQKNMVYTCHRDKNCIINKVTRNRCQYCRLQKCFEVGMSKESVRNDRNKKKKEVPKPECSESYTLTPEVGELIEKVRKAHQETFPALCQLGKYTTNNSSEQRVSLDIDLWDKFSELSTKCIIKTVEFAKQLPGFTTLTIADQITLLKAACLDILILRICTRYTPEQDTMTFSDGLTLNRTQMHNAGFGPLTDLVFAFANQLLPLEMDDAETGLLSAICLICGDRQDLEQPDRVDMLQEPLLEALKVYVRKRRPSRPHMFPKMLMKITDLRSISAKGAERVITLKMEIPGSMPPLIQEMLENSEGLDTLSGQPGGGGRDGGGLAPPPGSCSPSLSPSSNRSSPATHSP
Kind of experiment: Transactivation assay, luciferase reporter, full length RARα. The format is cell-based. The conditions noted are these: concentration giving 50% maximal transcription of the reporter gene; read-out: Trans (EC50) RARα. Here is the method: (§3) Retinoic acid receptor transactivation activity and binding efficiencies were determined essentially as described in U.S. Pat. Nos.: 5,298,429 and 5,071,773, incorporated by reference herein. Transactivation assays employed expression plasmids encoding the full length receptors RARα, RARβ, RARγ, RXRα, RXRβ, and RXRγ. Reporter plasmids contained the herpes virus thymidine kinase promoter and the appropriate retinoid acid receptor response element (RAREs) or retinoid X receptor response element (RXREs) positioned upstream of an open coding region encoding firefly luciferase.
as §2
For orientation: A reporter such as luciferase makes a cellular process visible.

The target in experiment [3] is T3, RARβ (Homo sapiens, UniProt P10826).
T3 construct: expressed in transfected cells
T3 sequence (P10826 1-455): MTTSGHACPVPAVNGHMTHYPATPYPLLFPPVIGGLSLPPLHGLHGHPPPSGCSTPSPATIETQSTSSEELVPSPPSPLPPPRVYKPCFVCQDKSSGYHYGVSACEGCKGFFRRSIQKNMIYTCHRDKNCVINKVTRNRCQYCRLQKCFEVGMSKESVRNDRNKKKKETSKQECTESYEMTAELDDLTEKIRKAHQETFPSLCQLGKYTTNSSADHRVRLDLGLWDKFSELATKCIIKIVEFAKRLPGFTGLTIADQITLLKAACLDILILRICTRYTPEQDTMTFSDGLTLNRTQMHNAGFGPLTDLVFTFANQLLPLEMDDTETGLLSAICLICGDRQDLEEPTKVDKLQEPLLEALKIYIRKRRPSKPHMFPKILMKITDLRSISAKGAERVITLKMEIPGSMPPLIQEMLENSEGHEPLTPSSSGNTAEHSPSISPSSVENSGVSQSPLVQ
Kind of experiment: Competition binding assay, radiolabeled all-trans-retinoic acid, RARβ. The procedure: as §1, §2

Experiment [4] has as its target T4, RXRβ (Homo sapiens, UniProt P28702).
T4 construct: encoding the full length receptors RARα, RARβ, RARγ, RXRα, RXRβ, and RXRγ; expressed in transfected cells
T4 sequence (P28702 1-533): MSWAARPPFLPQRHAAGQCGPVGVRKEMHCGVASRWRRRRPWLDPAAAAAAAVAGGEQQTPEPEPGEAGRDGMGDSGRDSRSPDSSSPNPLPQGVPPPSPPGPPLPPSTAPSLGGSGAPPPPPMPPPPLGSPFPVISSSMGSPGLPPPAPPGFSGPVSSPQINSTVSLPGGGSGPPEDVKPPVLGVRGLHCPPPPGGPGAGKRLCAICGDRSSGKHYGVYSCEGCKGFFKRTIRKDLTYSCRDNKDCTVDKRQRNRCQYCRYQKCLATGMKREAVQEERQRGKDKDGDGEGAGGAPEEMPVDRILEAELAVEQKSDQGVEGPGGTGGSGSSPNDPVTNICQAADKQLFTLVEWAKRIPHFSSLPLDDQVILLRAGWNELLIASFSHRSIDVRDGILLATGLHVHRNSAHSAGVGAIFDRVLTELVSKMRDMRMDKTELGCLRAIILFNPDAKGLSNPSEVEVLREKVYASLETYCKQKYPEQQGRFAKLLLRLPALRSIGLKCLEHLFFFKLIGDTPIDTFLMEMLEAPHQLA
Kind of experiment: Competition binding assay, radiolabeled 9-cis retinoic acid, RXRβ. The conditions noted are these: competition with radiolabeled 9-cis retinoic acid; read-out: Bind (KD50) RXRβ. The procedure:
as §1, §2

Experiment [5] deals with T4, RXRβ. Kind of experiment: Transactivation assay, luciferase reporter, full length RXRβ. Particulars: concentration giving 50% maximal transcription of the reporter gene; read-out: Trans (EC50) RXRβ. The format is cell-based. The procedure: as §3, §2
Experiment [6] concerns the target T2, RARα. Kind of experiment: Competition binding assay, radiolabeled all-trans-retinoic acid, RARα. Here is the method:
as §1, §2

Experiment [7] has as its target T3, RARβ. Nature of the experiment: Transactivation assay, luciferase reporter, full length RARβ. The format is cell-based. The procedure:
as §3, §2

Experiment [8] has as its target T5, RXRα (Homo sapiens, UniProt P19793).
T5 construct: encoding the full length receptors RARα, RARβ, RARγ, RXRα, RXRβ, and RXRγ; expressed in transfected cells
T5 sequence (P19793 1-462): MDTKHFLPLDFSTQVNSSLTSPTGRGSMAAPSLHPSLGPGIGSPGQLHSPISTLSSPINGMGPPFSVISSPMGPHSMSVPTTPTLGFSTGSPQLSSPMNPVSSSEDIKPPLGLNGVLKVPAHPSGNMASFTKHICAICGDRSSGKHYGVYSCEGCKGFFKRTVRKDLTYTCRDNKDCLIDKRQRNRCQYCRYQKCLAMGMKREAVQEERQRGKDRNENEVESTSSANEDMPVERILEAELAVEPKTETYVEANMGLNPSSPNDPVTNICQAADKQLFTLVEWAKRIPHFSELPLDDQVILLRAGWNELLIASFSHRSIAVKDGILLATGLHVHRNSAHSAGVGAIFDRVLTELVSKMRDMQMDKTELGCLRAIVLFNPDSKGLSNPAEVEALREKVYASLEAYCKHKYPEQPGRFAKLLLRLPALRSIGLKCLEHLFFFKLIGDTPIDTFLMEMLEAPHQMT
Kind of experiment: Competition binding assay, radiolabeled 9-cis retinoic acid, RXRα. Particulars: competition with radiolabeled 9-cis retinoic acid; read-out: Bind (KD50) RXRα. The procedure:
as §1, §2

Experiment [9] has as its target T6, RXRγ (Homo sapiens, UniProt P48443).
T6 construct: encoding the full length receptors RARα, RARβ, RARγ, RXRα, RXRβ, and RXRγ; expressed in transfected cells
T6 sequence (P48443 1-463): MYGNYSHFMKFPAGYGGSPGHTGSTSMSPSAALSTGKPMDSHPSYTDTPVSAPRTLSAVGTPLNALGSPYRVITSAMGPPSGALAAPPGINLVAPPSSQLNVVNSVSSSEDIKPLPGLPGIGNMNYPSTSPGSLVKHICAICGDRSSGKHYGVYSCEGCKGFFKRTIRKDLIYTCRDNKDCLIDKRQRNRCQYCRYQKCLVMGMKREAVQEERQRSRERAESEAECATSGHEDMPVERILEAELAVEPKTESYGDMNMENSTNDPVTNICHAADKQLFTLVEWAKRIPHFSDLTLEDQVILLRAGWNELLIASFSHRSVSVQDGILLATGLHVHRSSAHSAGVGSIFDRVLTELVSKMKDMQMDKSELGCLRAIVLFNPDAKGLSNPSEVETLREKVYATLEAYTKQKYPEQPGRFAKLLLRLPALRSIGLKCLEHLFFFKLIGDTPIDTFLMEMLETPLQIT
Nature of the experiment: Competition binding assay, radiolabeled 9-cis retinoic acid, RXRγ. Particulars: competition with radiolabeled 9-cis retinoic acid; read-out: Bind (KD50) RXRγ. The procedure: as §1, §2

Experiment [10] deals with T6, RXRγ. Kind of experiment: Transactivation assay, luciferase reporter, full length RXRγ. The format is cell-based. Particulars: concentration giving 50% maximal transcription of the reporter gene; read-out: Trans (EC50) RXRγ. Here is the method:
as §3, §2

Experiment [11] concerns the target T5, RXRα. Kind of experiment: Transactivation assay, luciferase reporter, full length RXRα. The format is cell-based. Particulars: concentration giving 50% maximal transcription of the reporter gene; read-out: Trans (EC50) RXRα. Here is the method:
as §3, §2

Experiment [12] addresses T1, RARγ. Kind of experiment: Transactivation assay, luciferase reporter, full length RARγ. Type of experiment: cell-based. Here is the method:
as §3, §2

[13] abbreviates: competition with radiolabeled all-trans-retinoic acid, read-out: Bind (KD50) RARγ.
Where [14] appears, read: competition with radiolabeled all-trans-retinoic acid, read-out: Bind (KD50) RARβ.
The mark [15] stands for this setting: competition with radiolabeled all-trans-retinoic acid, read-out: Bind (KD50) RARα.
Where [16] appears, read: concentration giving 50% maximal transcription of the reporter gene, read-out: Trans (EC50) RARβ.

A word on the EC50: it is the midpoint of the concentration-response curve.

Read-outs that look alike come from different tables or passages of the source. A value given as a limit tells only on which side of the number the result lay.

As for `Cc1cc2c(cc1/C(=C/c1ccc(C(=O)C(=O)O)cc1)[Si](C)(C)C)C(C)(C)CCC2(C)C` [Compound 192192], the Kd is 2020 nM in experiment [1] (setting [13]); 699 nM in experiment [3] (setting [14]); more than 1000 nM in experiment [4]; 2640 nM in experiment [6] (setting [15]); more than 1000 nM in [8]; more than 1000 nM in experiment [9]. For the same molecule, the EC50 in [2] amounted to 550 nM; in experiment [5], 780 nM; in experiment [7] (setting [16]), 88 nM; in [10], 960 nM; in [11] it was 990 nM.
`CC1(C)CC(C)(C)c2cc(/C(=C/c3ccc(C(=O)C(=O)O)cc3)[Si](C)(C)C)ccc2O1` [Compound 192452]: the Kd in [1] (setting [13]) was determined as 4520 nM; in experiment [3] (setting [14]) it was 3300 nM. The EC50 in [10] was 2900 nM; in experiment [11], 3100 nM.
For the molecule `CC1(C)CCC(C)(C)c2cc(/C(=C/c3ccc(C(=O)O)s3)[Si](C)(C)C)ccc21` [Compound 192295], the Kd in experiment [1] (setting [13]) came out at 1550 nM; in [3] (setting [14]), 499 nM; in [6] (setting [15]) it was 1300 nM. Besides, the EC50 in experiment [2] amounted to 350 nM; in [7] (setting [16]) it was 290 nM; in experiment [12] (concentration giving 50% maximal transcription of the reporter gene, read-out: Trans (EC50) RARγ) it was 330 nM.
As to `CC1(C)CCC(C)(C)c2cc(/C(=C/c3ccc(C(=O)C(=O)O)cc3)[Si](C)(C)C)ccc21` [Compound 192337], the Kd was 5840 nM in experiment [1], 2430 nM in experiment [3] and 2280 nM in [6]. The EC50 turned out to be 260 nM in [7] and 1500 nM in experiment [12].
Consider `Cc1cc2c(cc1/C(=C/c1ccc(C(=O)O)s1)[Si](C)(C)C)C(C)(C)CCC2(C)C` [Compound 192294], for which the Kd in experiment [1] (setting [13]) stood at 8940 nM; in [3] (setting [14]), 8000 nM.
